Series [1] relates to primary subcutaneous human adipocytes. Put plainly: Adipocyte lysis assay (MTS viability). It counts as cell-based. On the procedure: The capability of the particle formulation to kill fat cells was tested by incubating them with primary subcutaneous human adipocytes. The primary subcutaneous human adipocytes cultured in 96-well plates were purchased from Zen-Bio (Research Triangle, NC). Upon arrival, 150 μl of the media was removed from each well, and the cells were incubated at 37° C. and 5% CO2. For the lysis assays, 150 μl of the salt solution or particle suspension of the known concentration in FBS free RPMI-medium were incubated for a known time-point. Afterward, the treatment solution was aspirated, the cells were washed with warm PBS, and 150 μl of a 1:25 dilution in 1×PBS of MTS assay cell titer (purchased from Promega Corporation, Madison, Wis.) was added to each well. Plates were incubated at 37° C. and 5% CO2 for 3 hr until the appearance of the orange color in the untreated control wells and the absorbance was measured at 490 nm. The cell viability was quantified via subtracting the background cell titer absorbance from the absorbance of the desired point and dividing it by the average signal of the untreated cells after subtracting the background.

Series [2] relates to Human umbilical vein endothelial cells (HUVECs). Put plainly: HUVEC cell lysis assay (MTS viability).
Protocol: After the desired time-point, the treatment solution/suspension was removed from the wells, the cells were washed with warm 1X phosphate buffered saline (PBS) and incubated with 1 ml of the 1:25 dilution of MTS assay cell titer (Promega, WI) in 1×PBS at 37° C. and 5% CO2 for 2 hr until the appearance of the orange color in the untreated control wells. The absorbance was then measured at 490 nm, and each condition was repeated in triplicate. The percentage of the cell viability was quantified via subtracting the background cell titer absorbance from the absorbance of the desired point and dividing it by the average signal of the untreated cells after subtracting the background.
The subject of series [3] is inguinal fat pads of genetically obese mice. In words: In vivo lipolysis after subcutaneous injection into inguinal fat pad. Further details: species or system mice (B6.Cg-Lep^ob/J). As for the experimental part:
Animal studies were conducted following the National Institute of Health guidelines for the care and use of laboratory animals and approved by the Institutional Animal Care and Use Committee (IACUC) of the University of Michigan. 8-10 week old female genetically obese (B6.Cg-Lep^ob/J) mice purchased from The Jackson Laboratory were used. The in vivo trials were replicated for 3 animals. All the animals had the same age and the average weight of the animals in each group were matched prior to the initiation of the study.
In vivo lipolysis assays were performed via subcutaneous injection of rhodamine-loaded deoxycholate microparticles into the inguinal fat pads of genetically obese mice alongside the salt solution and vehicle control. Genetically obese mice were anesthetized using isoflurane, shaved, and subcutaneously injected with 100 μL of the suspension of rhodamine-loaded deoxycholate particles or the solution of deoxycholate salt in saline (25 mg/mL) or vehicle control into their right inguinal fat pad. 100 μL of pure saline was injected into the left fat pad of the animals as the control. The weight and appearance of the animals was tracked over the course of two weeks. One group of the animals received a second dosage of particles on Day 7. After 14 days, the animals were euthanized, the right and left fat pad of the animals were removed, weighed, and fixed in 10% formalin solution overnight. Histology slides of the samples were prepared via paraffin embedding and standard hematoxylin and eosin staining. The histology slides were analyzed by blindfolded physicians and the digital scans were analyzed using QuPath software.

Data on two compounds can be found in patent US20220257523A1, “COMPOSITE DRUG PARTICLES AND USES THEREOF” (The Regents of the University of Michigan, priority 2019, published 2022).

Regarding `C[C@H](CCC(=O)[O-])[C@H]1CC[C@H]2[C@@H]3[C@H](O)C[C@@H]4C[C@H](O)CC[C@]4(C)[C@H]3C[C@H](O)[C@]12C.[Na+]` [sodium cholate], in series [1] (1% solution in RPMI media), the cells killed entry was “all the cells”.
As to `C[C@H](CCC(=O)[O-])[C@H]1CC[C@H]2[C@@H]3CC[C@@H]4C[C@H](O)CC[C@]4(C)[C@H]3C[C@H](O)[C@]12C.[Na+]` [sodium deoxycholate], the “concentration enough to kill the fat cells” value in series [1] (RPMI media, within 1 hr) was “higher than 0.05%”. In addition, the cells killed in series [2] (0.01% solution in media, 1 hr) is given as about 40%; in series [2] (0.2% salt solution in media, 1 hr), “approximately 95%”. Also, in series [2] (0.1% salt in 5% BSA, 3 hr), the cells still alive result was “around 25%”. Further, in series [2] (0.1% salt in media, 3 hr), the cell death entry is given as “nearly all the cells”. Moreover, the cells lysed result in series [2] (concentrations higher than 0.2%, 1 hr) is “all the cells”. Further, the “time at which an ulcer developed in all of the animals” value in series [3] (100 μL of 25 mg/mL in saline s.c. into right inguinal fat pad) is 7-9 days post-injection. Also, the “skin bruising and inflammation at the injection site” value in series [3] (100 μL of 25 mg/mL in saline s.c. into right inguinal fat pad, particles rhodamine-loaded, one or two dosages) was “severe bruising and inflammation”. In addition, the “local fat loss in the injected fat pad” value in series [3] (at euthanasia 14 days post-injection, right versus left fat pad) is listed as “visual evidence of local fat loss”. In addition, the “weight of the animals during the lipolytic treatment” value in series [3] (over two weeks) is listed as “No significant change”. In series [3] (s.c. injection into right inguinal fat pad), the “histology (H&E) of the right fat pad, evidence of fat lysis” value is “Crown-like structures and significant leukocyte infiltration”.
